Assay [1] concerns LPS-induced neutrophil infiltration into the lung. The assay can be described thus: Lipopolysaccharide (LPS) mouse lung inflammation model. The format is in vivo, CD-1 mice. The note with it: 10 mg/kg oral, 1 hr before and 2 hrs after LPS 2.5 mg/kg intratracheal, BAL 6 hr post-LPS. Here is the method: In this model, LPS was instilled into the lungs of mice to induce a neutrophilia in the lung tissue. The neutrophilia can be measured in the BAL fluid during lung lavage at various times after challenge with LPS. The neutrophilia develops with a significant increase in cells in the BAL after 6 hrs and achieves a maximum response by 24 hrs. CD-1 mice received lipopolysaccharide (LPS) 2.5 mg/kg in phosphate buffered saline (PBS) or PBS in a volume of 50 μL by intracheal instillation into the lung. The animals were lightly anesthetized using isofluorane to enable application of the LPS. When anesthetized the animals were placed on a board at an angle of 45°. The tongue was rolled to one side and LPS was administered directly into the trachea in a volume of 50 μL. The animal remained in position for 1-2 minutes to ensure the LPS remained in the lung. At the end of the LPS challenge time, animals were euthanized by an overdose of isofluorane. The trachea was exposed and the lungs were intubated using a 21 G catheter tube. The lungs were lavaged with 2×1 mL of PBS at room temperature. […] The differential cell counts were determined using an automated cell counter (Abraxia) set to measure mouse cells. Cell concentration of the resuspended sample was expressed as total cells recovered in the total volume of recovered BAL. […]

Another assay concerns AA-induced ear edema. In words: Arachidonic acid (AA) induced mouse ear edema model. The format is in vivo, CD-1 mice. The note with it: 4 hrs and 1 hr before AA 2 mg/ear, mice; for % Inhibition AA-Induced ear edema (0.3 mg/ear): topical 0.3 mg/ear; for % Inhibition AA-Induced ear edema (1 mg/ear): topical 1 mg/ear. Here is the method:
One group serves as a control and receives 20 μL of vehicle applied to the pinna of each ear (10 μL to the inside and 10 μL to the outside of the pinna). One or more additional groups serve as test groups. The test compound was applied to the pinna of one ear of the mouse in a 20 μL volume (10 μL to the inside and 10 μL to the outside of the pinna). Test compound or control vehicle (acetone/1% DMSO) was applied topically to the right ear 4 and 1 hour before the application of 2 mg/ear AA as a stimulus to both the inner and outer surfaces of CD-1 mice. The left ears received vehicle (acetone/1% DMSO) alone. The animal was lightly anesthetized again using isofluorane to enable application of the stimulus. For the control group, arachidonic acid (2 mg/ear) was applied as the stimulus to the pinna of one ear only, in a total volume of 20 μL of acetone (10 μL applied to the inside and 10 μL to the outside of the pinna). The other ear received 20 μL of acetone. This served to determine the increase in ear weight due to arachidonic acid in the absence of test compounds. For the test groups, arachidonic acid (2 mg/ear) was applied as the stimulus to the pinna of each ear, in a total volume of 20 μL of acetone (10 μL applied to the inside and 10 μL to the outside of the pinna). The animal was allowed to recover after application of the stimulus in each case. After 60 minutes the animal was euthanized and a standard biopsy sample was taken from each ear using a 6 mm skin biopsy punch (Acuderm). Ear edema was determined by the increase in weight of the tissue due to accumulation of fluid as a result of plasma extravasation. The ears were weighed separately using a balance suitable to record 0.1 mg. For the control group, the difference in ear weights was determined by subtracting the weight of the unstimulated ear from the stimulated ear, and this was a measure of the increase in ear weight due to edema. The percentage increase in ear weight was determined by dividing the increase in stimulated ear weight by the unstimulated ear weight and multiplying by 100. For the test groups, the difference in ear weights was determined by subtracting the weight of the untreated ear from the weight of the ear treated with test compound. The percent inhibition of the increase in ear weight for ears treated with the test compound was estimated by first subtracting the mean ear weight of the untreated controls from each tissue to determine the increase in tissue weight due to application of the arachidonic acid. The percent inhibition=1−(test drug stimulated ear (mg)/control stimulated ear (mg))×100. In Table 5, the data from inhibition of AA-induced ear edema in mice by topical application of compounds is provided. Compounds (0.3 or 1 mg/ear) were applied topically to the ear 4 hrs and 1 hr prior to application of arachidonic acid (AA; 2 mg/ear).

2 molecules from patent US12686668B2, “Leukotriene synthesis inhibitors” (Naegis Pharmaceuticals Inc., priority 2019, dated 2026) can be followed below.

On to `CCC(O)(CCc1ccc(Oc2nc3c(SC)cccc3s2)c(OC)c1)C(F)(F)F` (centres unmarked) [Compound 104, 1-{3-methoxy-4-[(4-methylsulfanyl-1,3-benzothiazol-2-yl)oxy]phenyl}-3-(trifluoromethyl)pentan-3-ol], for which, in assay [1], the “Effect on LPS-induced neutrophil infiltration into the lung (BAL)” value is listed as “inhibitory effect”. Besides, in the assay with AA-induced ear edema, the “% Inhibition AA-Induced ear edema (0.3 mg/ear)” value was 30-50% and the “% Inhibition AA-Induced ear edema (1 mg/ear)” value was 50-70%.
On to `CC(O)(CCc1ccc(OCc2ccc3ccccc3n2)cc1)C(F)(F)F` (centres unmarked) [Compound 183, 1,1,1-trifluoro-2-methyl-4-[4-(quinolin-2-ylmethoxy)phenyl]butan-2-ol], for which, in the assay on AA-induced ear edema, the “% Inhibition AA-Induced ear edema (0.3 mg/ear)” value is on record as 30-50% and the “% Inhibition AA-Induced ear edema (1 mg/ear)” value is listed as above 90%.
